These results are taken from patent US20120295923A1, “Aminocyclohexanes and Aminotetrahydropyrans and Related Compounds As Gamma-Secretase Modulators” (PFIZER INC., priority 2010, published 2012).

Structures can show the parent of a compound that is named as a salt.

For the first test, the system named is γ-secretase; production of amyloid beta protein Aβ(1-42). The test can be described thus: Cell-Based γ-Secretase Assay with ELISA Readout. To be noted: human WT-APP overexpressing CHO cells; footnote 8: single determination; read-out: Aβ 42B IC50 (nM) (Geometric Mean of 2-8 Determinations). The protocol:
The ability of compounds to modulate production of amyloid beta protein A6(1-42) was determined using human WT-APP overexpressing CHO cells. Cells were plated at 22,000 cells/100 μL well in 96 well tissue culture treated, clear plates (Falcon) in DMEM/F12 based medium and incubated for 24 hours at 37° C. Compounds for testing were diluted in 100% DMSO to achieve an eleven points, half log, dose response for IC50 determinations. Compounds were added in fresh medium to achieve 1% final DMSO. Appropriate vehicle and inhibitor controls were added to obtain maximum and minimum inhibition values for the assay before the plates were incubated for about 24 hours at 37° C.
Coating of ELISA assay plates was initiated by addition of 50 μL/well of an in-house Aβ(1-42) specific antibody at (4 μg/mL) in 0.1 M NaHCO3 (pH 9.0) into black 384-well Maxisorp® plates (Nunc) and incubated overnight at 4° C. The capture antibody was then aspirated from the ELISA assay plates and 100 μL/well of Blocking Buffer (Dulbecco's PBS, 1.5% BSA (Sigma A7030)) added. Ambient temperature incubation was allowed to proceed for a minimum of two hours before washing 2×100 μL with Wash Buffer (Dulbecco's PBS, 0.05% Tween 20). Assay Buffer (Dulbecco's PBS, 1.0% BSA (Sigma A7030), 0.05% Tween 20) 20 μL/well was then added.
After incubation overnight at 37° C., 5% CO2, 40 μL (in duplicate) of experimental conditioned media were transferred into wells of the blocked ELISA plates containing the capture antibody, followed by overnight incubation at 4° C.
After overnight incubation of the ELISA assay plates at 4° C., unbound Aβ peptides were removed thorough (4×100 μL) washes with Wash Buffer. Europium (Eu) labeled (custom labeled, Perkin Elmer) Aβ(1-16) 6e10 Monoclonal Antibody (Covance #SIG-39320 was added, (50 μL/well Eu-6e10 @ 1:5000, 20 uM EDTA) in Assay Buffer. Incubation at ambient temperature for a minimum of 2 hours was followed by (4×100 μL) washes with Wash Buffer, before 50 μL/well of Delfia Enhancement Solution (PerkinElmer) was added. Following a one hour ambient temperature incubation, the plates were read on an EnVision plate reader (PerkinElmer) using standard DELFIA TRF settings. Data analysis including inhibitory IC50 determination was performed using nonlinear regression fit analysis (in-house software) and the appropriate plate mean values for the maximum and minimum inhibition controls.
Broadly, the IC50 is the point on the concentration scale where inhibition reaches its midpoint. Take `O=C(O)C[C@@H]1CC[C@@H](N2C[C@@H]3CC[C@@H](C3)C2)[C@H](c2ccc(C(F)(F)F)cc2)C1` [Example 25, {(1R,3S,4R)-4-[(1R,5S)-3-azabicyclo[3.2.1]oct-3-yl]-3-[4-(trifluoromethyl)phenyl]cyclohexyl} acetic acid]: the IC50 was found to be 8840 nM.

With `Cc1cc(Cl)ccc1[C@@H]1OC(CC(=O)O)CC[C@H]1N(CC1CCCC1)CC1CCCC1` (stereo in doubt) [Example 24, [(2R,5R,6S)-5-[bis(cyclopentyl-methyl)amino]-6-(4-chloro-2-methylphenyl)tetrahydro-2H-pyran-2-yl]acetic acid], the IC50 came out at 9190 nM.

With `CC(C)CCN(CC1(F)CCCCC1)[C@@H]1CC[C@@H](CC(=O)O)C[C@H]1c1ccc(C(F)(F)F)cc1` [Example 14, {(1R,3S,4R)-4-{[(1-fluorocyclo-hexyl)methyl](3-methylbutyl)amino}-3-[4-(trifluoromethyl)phenyl]cyclohexyl} acetic acid], the IC50 worked out at 103 nM.

For `O=C(O)C[C@@H]1CC[C@@H](N(CC2CCCC2)CC2CCCC2)[C@H](c2ccc(C(F)(F)F)nc2)O1` [Example 19, {(2S,5R,6S)-5-[bis(cyclopentyl-methyl)amino]-6-[6-(trifluoromethyl)pyridin-3-yl]tetrahydro-2H-pyran-2-yl}acetic acid], the IC50 stood at 837 nM.

With `CC(C)CCN(C1CCC(F)(F)CC1)[C@@H]1CC[C@@H](CC(=O)O)C[C@H]1c1ccc(C(F)(F)F)cc1` [Example 16, {(1R,3S,4R)-4-[(4,4-difluoro-cyclohexyl)(3-methylbutyl)amino]-3-[4-(trifluoromethyl)phenyl]cyclohexyl} acetic acid], the IC50 came to 496 nM.

Still in this test, the particulars now being: human WT-APP overexpressing CHO cells; geometric mean of 2-4 determinations unless otherwise indicated (footnote 10: 6-8; footnote 14: single determination); read-out: Aβ 42B IC50.
On to `Cc1cc(CN(CC(C)C)[C@@H]2CC[C@@H](CC(=O)O)C[C@H]2c2ccc(C(F)(F)F)cc2)oc1C` [Example 67, {(1R,3S,4R)-4-{[(4,5-dimethyl-2-furyl)methyl](isobutyl)amino}-3-[4-(trifluoromethyl)phenyl]cyclohexyl}acetic acid, trifluoroacetate salt], for which the IC50 was found to be 411 nM.

Consider `O=C(O)C[C@@H]1CC[C@@H](N(CC2CCCC2)CC2CCC2)[C@H](c2ccc(C(F)(F)F)cc2)C1` [Example 50, {(1R,3S,4R)-4-[(cyclobutylmethyl) (cyclopentyl)methyl)amino]-3-[4-(trifluoromethyl)phenyl] cyclohexyl}acetic acid, ammonium salt], for which the half-inhibitory concentration (IC50) was 463 nM.

`Cc1nc(CN(CC2CCCC2)[C@@H]2CC[C@@H](CC(=O)O)C[C@H]2c2ccc(C(F)(F)F)cc2)co1` [Example 53, {(1R,3S,4R)-4-{(cyclopentylmethyl)[(2-methyl-1,3-oxazol-4-yl)methyl]amino}-3-[4-(trifluoromethyl)phenyl]cyclohexyl}acetic acid, ammonium salt]: the IC50 stood at 959 nM.

`CC(C)(C)CCN(CC1CCCC1)[C@@H]1CC[C@@H](CC(=O)O)C[C@H]1c1ccc(C(F)(F)F)cc1` [Example 35, {(1R,3S,4R)-4-[(cyclopentylmethyl)(3,3-dimethylbutyl)amino]-3-[4-(trifluoromethyl)phenyl]cyclohexyl}acetic acid, ammonium salt]: the IC50 stood at 516 nM.

As to `CC(C)(C#N)CCN(CC1CCCC1)[C@@H]1CC[C@@H](CC(=O)O)C[C@H]1c1ccc(C(F)(F)F)cc1` [Example 37, {(1R,3S,4R)-4-[(3-cyano-3-methylbutyl)(cyclopentylmethyl)amino]-3-[4-(trifluoromethyl)phenyl]cyclohexyl}acetic acid, trifluoroacetate salt], the IC50 stood at 2170 nM.

As for `O=C(O)C[C@@H]1CC[C@@H](N(CC2CCCC2)CC2CCCC2)[C@H](c2ccc(Cl)c(F)c2)O1` [Example 54, [(2S,5R,6S)-5-[bis(cyclopentylmethyl)amino]-6-(4-chloro-3-fluorophenyl)tetrahydro-2H-pyran-2-yl]acetic acid, ammonium acid], the IC50 came out at 1050 nM.

In the case of `CCC(C)CN(CC1CCCC1)[C@@H]1CC[C@@H](CC(=O)O)C[C@H]1c1ccc(C(F)(F)F)cc1` (stereo partly drawn) [Example 34, {(1R,3S,4R)-4-[(cyclopentylmethyl)(2-methylbutyl)amino]-3-[4-(trifluoromethyl)phenyl]cyclohexyl}acetic acid, ammonium salt], the IC50 was determined as 359 nM.

For the molecule `CC(C)CCN(CCC1CCCCC1)[C@@H]1CC[C@@H](CC(=O)O)C[C@H]1c1ccc(C(F)(F)F)cc1` [Example 32, {(1R,3S,4R)-4-[(2-cyclohexylethyl)(3-methylbutyl)amino]-3-[4-(trifluoromethyl)phenyl]cyclohexyl}acetic acid, trifluoroacetate salt], the IC50 came out at 598 nM.

Regarding `COc1cccc(F)c1CN(CC1(F)CCCCC1)[C@@H]1CC[C@@H](CC(=O)O)C[C@H]1c1ccc(C(F)(F)F)cc1` [Example 58, {(1R,3S,4R)-4-{[(1-fluorocyclohexyl)methyl](2-fluoro-6-methoxybenzyl)amino}-3-[4-(trifluoromethyl)phenyl]cyclohexyl}acetic acid, trifluoroacetate salt], the IC50 came out at 309 nM.

As for `O=C(O)C[C@@H]1CC[C@@H](N(CC2CCCC2)CC2CCCC2)[C@H](c2ccc(Cl)cc2)O1` [Example 55, [(2S,5R,6S)-5-[bis(cyclopentylmethyl)amino]-6-(4-chlorophenyl)tetrahydro-2H-pyran-2-yl]acetic acid], the IC50 was 892 nM.

Consider `O=C(O)C[C@@H]1CC[C@@H](N(CC2=Cc3ccccc3OC2)CC2(F)CCCCC2)[C@H](c2ccc(C(F)(F)F)cc2)C1` [Example 62, {(1R,3S,4R)-4-{(2H-chromen-3-ylmethyl)[(1-fluorocyclohexyl)methyl]amino}-3-[4-(trifluoromethyl)phenyl]cyclohexyl}acetic acid, trifluoroacetate salt], for which the IC50 was found to be 223 nM.

The same test, now with this note: human WT-APP overexpressing CHO cells; geometric mean of 2 determinations unless otherwise indicated (footnote 2: 6-14 determinations); read-out: Aβ 42B IC50.
Take `O=C(O)C[C@@H]1CC[C@@H](N(CC2CCCC2)CC2CCCC2)[C@H](c2ccc(C(F)(F)F)cc2)C1` [Example 1, {(1R,3S,4R)-4-[bis(cyclopentylmethyl)amino]-3-[4-(trifluoromethyl)phenyl]cyclohexyl}acetic acid]: the half-maximal inhibitory concentration (IC50) came out at 229 nM.

Consider `CC(C)CN(CC1CCCC1)[C@@H]1CC[C@@H](CC(=O)O)O[C@H]1c1ccc(C(F)(F)F)cc1` [Example 4, {(2S,5R,6S)-5-[(cyclopentylmethyl)(isobutyl)amino]-6-[4-(trifluoromethyl)phenyl]tetrahydro-2H-pyran-2-yl}acetic acid], for which the IC50 was determined as 608 nM.

Turning to `CC(C)CCN(CCC(C)C)[C@@H]1CC[C@@H]([C@H](C)C(=O)O)C[C@H]1c1ccc(C(F)(F)F)cc1` (single isomer, unassigned) [Example 8], the IC50 amounted to 1580 nM.

Turning to `O=C(O)C[C@@H]1CC[C@@H](N(CC2CCCC2)CC2CCCC2)[C@H](c2ccc(C(F)(F)F)cc2)O1` [Example 3, {(2S,5R,6S)-5-[bis(cyclopentylmethyl)amino]-6-[4-(trifluoromethyl)phenyl]tetrahydro-2H-pyran-2-yl}acetic acid], the IC50 came out at 357 nM.

In the case of `O=C(O)C[C@@H]1CC[C@@H](N(Cc2ccccc2)CC2CCCC2)[C@H](c2ccc(C(F)(F)F)cc2)C1` [Example 2, {(1R,3S,4R)-4-[benzyl(cyclopentylmethyl)amino]-3-[4-(trifluoromethyl)phenyl]cyclohexyl}acetic acid], the IC50 was 139 nM.
